In assay [1] the test system is NCI-H460. The assay is described as follows: Cytotoxicity against human H460 cells after 72 hrs by MTT assay. It is filed as functional, cell-based. The settings on record: NCI-H460, 72 h. For orientation: Tetrazolium dyes change colour on reduction, which living cells bring about.
Assay [2] deals with HT-29. The assay is described as follows: Cytotoxicity against human HT-29 cells after 72 hrs by MTT assay. The settings on record: HT-29, 72 h. It is filed as functional, cell-based.
The test system of assay [3] is HepG2. The assay is described as follows: Cytotoxicity against human HepG2 cells after 72 hrs by MTT assay. It is filed as functional, cell-based. The settings on record: HepG2, 72 h.
Assay [4] relates to SGC-7901. The assay is described as follows: Cytotoxicity against human SGC7901 cells after 72 hrs by MTT assay. It is filed as functional, cell-based. The settings on record: SGC-7901, 72 h.
The subject of assay [5] is HT-29. Briefly: Ratio of iressa IC50 to compound IC50 for human HT-29 cells. It is filed as functional.
Assay [6] has as its system HepG2. Briefly: Ratio of iressa IC50 to compound IC50 for human HepG2 cells. It is filed as functional.

In general, IC50 refers to the midpoint of a concentration-inhibition curve. Read a low IC50 as greater potency in that assay.

With `Cc1ccc(-c2cc(NCCN(C)C)c3ccccc3n2)cc1`, the IC50 turned out to be 3.52 µM in assay [1], 1.35 µM in assay [2], 2.06 µM in assay [3] and 4.92 µM in assay [4].

For `CN1CCC(Nc2nc(N/N=C/c3nccn3Cc3ccc(F)cc3)nc3ccccc23)CC1`, the IC50 in assay [1] is 0.21 µM; in assay [2] it was 0.65 µM; in assay [3], 0.98 µM; in assay [4], 0.78 µM.

Take `Oc1ccccc1/C=N/Nc1nc(NCCCN2CCOCC2)c2ccccc2n1`: the IC50 came out at 2.95 µM in assay [1], 2.08 µM in assay [2], 3.83 µM in assay [3] and 3.21 µM in assay [4].

Take `COc1ccc(OC)c(/C=N/Nc2nc(NC3CCN(C)CC3)c3ccccc3n2)c1`: the IC50 is 4.76 µM in assay [1], 2.83 µM in assay [2], 7.17 µM in assay [3] and 4.24 µM in assay [4].

Take `CN(C)CCNc1nc(N/N=C/c2ccc(F)cc2)nc2ccccc12`: the IC50 in assay [1] came out at 5.68 µM; in assay [2], 1.53 µM; in assay [3], 1.82 µM; in assay [4] it was 4.1 µM.

For `Fc1ccc(Cn2ccnc2/C=N/Nc2nc(NCCCN3CCOCC3)c3ccccc3n2)cc1`, the IC50 in assay [1] is 2.47 µM; in assay [2], 0.93 µM; in assay [3], 2.21 µM; in assay [4], 1.92 µM.

Consider `CN1CCC(Nc2nc(N/N=C/c3ccc(F)cc3Cl)nc3ccccc23)CC1`, for which the IC50 in assay [1] was determined as 0.61 µM; in assay [2], 0.27 µM; in assay [3] it was 1.12 µM; in assay [4], 1.63 µM.

Turning to `CN(C)CCCNc1nc(N/N=C/c2ccc(Cl)cc2)nc2ccccc12`, the IC50 was 1.49 µM in assay [1], 0.27 µM in assay [2], 0.55 µM in assay [3] and 1.73 µM in assay [4].

Turning to `Clc1ccc(/C=N/Nc2nc(NCCCN3CCOCC3)c3ccccc3n2)cc1`, the IC50 in assay [1] came to 4 µM; in assay [2], 0.61 µM; in assay [3], 1.74 µM; in assay [4] it was 3.55 µM.

Take `CN(C)CCNc1nc(N/N=C/c2nccn2Cc2cccc(Cl)c2Cl)nc2ccccc12`: the IC50 in assay [1] turned out to be 0.87 µM; in assay [2], 0.26 µM; in assay [3], 0.67 µM; in assay [4], 1.85 µM.

For `CN1CCC(Nc2nc(N/N=C/c3nccn3Cc3cccc(Cl)c3Cl)nc3ccccc23)CC1`, the IC50 came out at 0.031 µM in assay [1], 0.015 µM in assay [2], 0.53 µM in assay [3] and 0.58 µM in assay [4]. The Ratio IC50 in assay [5] stood at 224; in assay [6], 12.

As for `Clc1cccc(Cn2ccnc2/C=N/Nc2nc(NCCCN3CCOCC3)c3ccccc3n2)c1Cl`, the IC50 turned out to be 0.91 µM in assay [1], 0.72 µM in assay [2], 1.25 µM in assay [3] and 2.66 µM in assay [4].

Regarding `C(=N\Nc1nc(NCCCN2CCOCC2)c2ccccc2n1)/c1nccn1Cc1ccccc1`, the IC50 in assay [1] worked out at 4.03 µM; in assay [2], 2.84 µM; in assay [3], 4.8 µM; in assay [4] it was 3.96 µM.

Regarding `Cc1ccc(Cn2ccnc2/C=N/Nc2nc(NC3CCN(C)CC3)c3ccccc3n2)cc1`, the IC50 in assay [1] worked out at 0.77 µM; in assay [2], 0.2 µM; in assay [3], 1.23 µM; in assay [4] it was 0.96 µM.

As to `CN(C)CCCNc1nc(N/N=C/c2ccc(F)cc2)nc2ccccc12`, the IC50 in assay [1] came out at 4.09 µM; in assay [2], 0.87 µM; in assay [3], 0.88 µM; in assay [4], 2.76 µM.

In the case of `CN(C)CCNc1nc(N/N=C/c2ccc(Cl)cc2)nc2ccccc12`, the IC50 in assay [1] is 3.25 µM; in assay [2], 0.21 µM; in assay [3] it was 0.37 µM; in assay [4] it was 0.97 µM.

As to `CN(C)CCNc1nc(N/N=C/c2nccn2Cc2ccc(F)cc2)nc2ccccc12`, the IC50 in assay [1] was determined as 1.05 µM; in assay [2], 0.93 µM; in assay [3], 3.06 µM; in assay [4], 2.42 µM.

Take `CN1CCC(Nc2nc(N/N=C/c3ccc(F)cc3)nc3ccccc23)CC1`: the IC50 in assay [1] was found to be 2.64 µM; in assay [2], 1.41 µM; in assay [3], 1.95 µM; in assay [4], 1.76 µM.

As to `CN1CCC(Nc2nc(N/N=C/c3ccc(Cl)cc3)nc3ccccc23)CC1`, the IC50 in assay [1] worked out at 0.21 µM; in assay [2], 0.023 µM; in assay [3] it was 0.17 µM; in assay [4], 1.32 µM.

On to `Cc1ccc(Cn2ccnc2/C=N/Nc2nc(NCCCN(C)C)c3ccccc3n2)cc1`, for which the IC50 in assay [1] worked out at 1.69 µM; in assay [2], 2.44 µM; in assay [3], 3.68 µM; in assay [4] it was 2.6 µM.

Turning to `Cc1ccc(Cn2ccnc2/C=N/Nc2nc(NCCCN3CCOCC3)c3ccccc3n2)cc1`, the IC50 in assay [1] was determined as 3.76 µM; in assay [2], 3.16 µM; in assay [3], 3.19 µM; in assay [4] it was 3.02 µM.

As to `CN(C)CCCNc1nc(N/N=C/c2nccn2Cc2cccc(Cl)c2Cl)nc2ccccc12`, the IC50 in assay [1] is 0.43 µM; in assay [2], 0.36 µM; in assay [3], 0.85 µM; in assay [4], 1.17 µM.

`CN(C)CCNc1nc(N/N=C/c2nccn2Cc2ccccc2)nc2ccccc12`: the IC50 in assay [1] came to 9.65 µM; in assay [2], 2.62 µM; in assay [3], 9.6 µM; in assay [4], 4.3 µM.

As for `Fc1ccc(/C=N/Nc2nc(NCCCN3CCOCC3)c3ccccc3n2)cc1`, the IC50 in assay [1] worked out at 5.87 µM; in assay [2], 2.19 µM; in assay [3], 4.02 µM; in assay [4], 6.77 µM.

Consider `Oc1cccc(/C=N/Nc2nc(NCCCN3CCOCC3)c3ccccc3n2)c1`, for which the IC50 in assay [1] came out at 4.67 µM; in assay [2], 6.32 µM; in assay [3], 6.49 µM; in assay [4] it was 4.9 µM.

As for `CN(C)CCCNc1nc(N/N=C/c2nccn2Cc2ccccc2)nc2ccccc12`, the IC50 in assay [1] was determined as 4.67 µM; in assay [2] it was 1.98 µM; in assay [3] it was 4.04 µM; in assay [4] it was 2.13 µM.

Regarding `CN(C)CCCNc1nc(N/N=C/c2ccc(F)cc2Cl)nc2ccccc12`, the IC50 came out at 1.8 µM in assay [1], 1.15 µM in assay [2], 0.67 µM in assay [3] and 1.66 µM in assay [4].

Take `CN(C)CCNc1nc(N/N=C/c2ccc(F)cc2Cl)nc2ccccc12`: the IC50 in assay [1] was 1.76 µM; in assay [2], 0.33 µM; in assay [3] it was 0.68 µM; in assay [4], 1.68 µM.

As for `CN1CCC(Nc2nc(N/N=C/c3nccn3Cc3ccccc3)nc3ccccc23)CC1`, the IC50 in assay [1] turned out to be 1.03 µM; in assay [2], 0.75 µM; in assay [3] it was 1.42 µM; in assay [4] it was 1.38 µM.

For `Cc1ccc(Cn2ccnc2/C=N/Nc2nc(NCCN(C)C)c3ccccc3n2)cc1`, the IC50 in assay [1] turned out to be 4.2 µM; in assay [2], 1.41 µM; in assay [3], 2.98 µM; in assay [4], 2.75 µM.

As for `CN(C)CCCNc1nc(N/N=C/c2nccn2Cc2ccc(F)cc2)nc2ccccc12`, the IC50 worked out at 0.64 µM in assay [1], 0.63 µM in assay [2], 2.86 µM in assay [3] and 3.51 µM in assay [4].

The values above are taken from ChEMBL document CHEMBL2040737, “Synthesis and biological evaluation of novel 2-(2-arylmethylene)hydrazinyl-4-aminoquinazoline derivatives as potent antitumor agents” (Eur J Med Chem, 2012).
